According to PubChem BioAssay AID248 (DTP/NCI, 2004):
Where “and” joins values, the source holds several entries; their conditions need not be identical. Identical values can stand only once. Toxic doses and inconclusive results are not listed. No stated cut-off is given here; in the data, active means T/C of 150% or more; inactive means T/C below 125%.

System: L1210 leukemia ip in BDF1 mice, survival T/C
Assay: NCI In Vivo Anticancer Drug Screen. Data for tumor model L1210 Leukemia (intraperitoneal) in B6D2F1 (BDF1) mice
Details: endpoint: mean survival time, higher = longer survival
How it was run: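 Transplanted-tumor mice were given test agent; controls received vehicle only. Survival readings from the two groups were divided (treated over control).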

[1] = dose: 100.0 mg/kg/injection, schedule: Q01DX001 (ip), vehicle: saline with Tween-80
[2] = dose: 200.0 mg/kg/injection, schedule: Q01DX001 (ip), vehicle: saline with Tween-80
[3] = dose: 400.0 mg/kg/injection, schedule: Q01DX001 (ip), vehicle: saline with Tween-80
[4] = dose: 100.0 mg/kg/injection, schedule: Q01DX009 (ip), vehicle: Klucel (hydroxypropylcellulose) (HPC)
[5] = dose: 200.0 mg/kg/injection, schedule: Q01DX009 (ip), vehicle: Klucel (hydroxypropylcellulose) (HPC)
[6] = dose: 100.0 mg/kg/injection, schedule: Q01DX001 (ip), vehicle: saline
[7] = dose: 200.0 mg/kg/injection, schedule: Q01DX001 (ip), vehicle: saline

Measured: T/C

Cc1cc(N(CCCOS(C)(=O)=O)CCCOS(C)(=O)=O)ccc1C=Nc1ccc2ccccc2c1
inactive: dose: 25.0 mg/kg/injection, schedule: Q04DX003 (ip), vehicle: saline with Tween-80 98 % of control | dose: 50.0 mg/kg/injection, schedule: Q04DX003 (ip), vehicle: saline with Tween-80 98 % of control | dose: 100.0 mg/kg/injection, schedule: Q04DX003 (ip), vehicle: saline with Tween-80 98 % of control | dose: 400.0 mg/kg/injection, schedule: Q04DX003 (ip), vehicle: saline with Tween-80 93 % of control

C=CC(=O)Nc1cccc(OC(=O)NC)c1
inactive: [1] 99 % of control | [2] 100 % of control | [3] 92 % of control

COC(=O)C1=COC(C)C2CN3CCc4c([nH]c5cc(OC)c(OC)cc45)C3CC12 (stereo unspecified)
inactive: dose: 50.0 mg/kg/injection, schedule: Q01DX Z (ip), vehicle: carboxymethylcellulose (CMC) 103 % of control | dose: 100.0 mg/kg/injection, schedule: Q01DX Z (ip), vehicle: carboxymethylcellulose (CMC) 105 % of control | dose: 200.0 mg/kg/injection, schedule: Q01DX Z (ip), vehicle: carboxymethylcellulose (CMC) 100 % of control | dose: 300.0 mg/kg/injection, schedule: Q01DX Z (ip), vehicle: carboxymethylcellulose (CMC) 105 % of control

CC(=O)CC(C)(C)c1ccccc1
inactive: dose: 100.0 mg/kg/injection, schedule: Q01DX001 (ip), vehicle: Klucel (hydroxypropylcellulose) (HPC) 100 % of control | dose: 100.0 mg/kg/injection, schedule: Q01DX009 (ip), vehicle: saline 103 % of control | dose: 100.0 mg/kg/injection, schedule: Q04DX003 (ip), vehicle: saline 103 % of control | dose: 200.0 mg/kg/injection, schedule: Q01DX001 (ip), vehicle: Klucel (hydroxypropylcellulose) (HPC) 95 % of control | dose: 200.0 mg/kg/injection, schedule: Q01DX009 (ip), vehicle: saline 101 % of control | dose: 200.0 mg/kg/injection, schedule: Q04DX003 (ip), vehicle: saline 100 % of control | dose: 400.0 mg/kg/injection, schedule: Q01DX001 (ip), vehicle: Klucel (hydroxypropylcellulose) (HPC) 94 % of control | dose: 400.0 mg/kg/injection, schedule: Q04DX003 (ip), vehicle: saline 111 % of control

CC12CCC(O)CC1CCC1C3CCCC(=O)C3CCC12 (stereo unspecified)
inactive: dose: 50.0 mg/kg/injection, schedule: Q01DX009 (sc), vehicle: steriod suspending solution 103 % of control | dose: 100.0 mg/kg/injection, schedule: Q01DX009 (sc), vehicle: steriod suspending solution 97 % of control | dose: 200.0 mg/kg/injection, schedule: Q01DX009 (sc), vehicle: steriod suspending solution 94 % of control

C[n+]1c2c(cc3ccccc31)CCC2
inactive: dose: 12.5 mg/kg/injection, schedule: Q01DX009 (ip), vehicle: saline with Tween-80 87 % of control | dose: 25.0 mg/kg/injection, schedule: Q01DX009 (ip), vehicle: saline with Tween-80 97 % of control | dose: 50.0 mg/kg/injection, schedule: Q01DX009 (ip), vehicle: saline with Tween-80 108 % of control and 90 % of control

COc1ccc(Cl)cc1NC(=O)Nc1cc(Cl)c(Cl)cc1C
inactive: [4] 102 % of control | dose: 100.0 mg/kg/injection, schedule: Q04DX003 (ip), vehicle: Klucel (hydroxypropylcellulose) (HPC) 95 % of control | [5] 100 % of control | dose: 200.0 mg/kg/injection, schedule: Q04DX003 (ip), vehicle: Klucel (hydroxypropylcellulose) (HPC) 94 % of control | dose: 400.0 mg/kg/injection, schedule: Q01DX009 (ip), vehicle: Klucel (hydroxypropylcellulose) (HPC) 97 % of control | dose: 400.0 mg/kg/injection, schedule: Q04DX003 (ip), vehicle: Klucel (hydroxypropylcellulose) (HPC) 94 % of control

O=C(NCCc1ccccc1)c1ccc2ccccc2n1
inactive: dose: 3.12 mg/kg/injection, schedule: Q01DX009 (ip), vehicle: DMSO 93 % of control | dose: 6.25 mg/kg/injection, schedule: Q01DX009 (ip), vehicle: DMSO 93 % of control | dose: 12.5 mg/kg/injection, schedule: Q01DX009 (ip), vehicle: DMSO 91 % of control | dose: 25.0 mg/kg/injection, schedule: Q01DX009 (ip), vehicle: DMSO 90 % of control | dose: 100.0 mg/kg/injection, schedule: Q04DX003 (ip), vehicle: DMSO 95 % of control | dose: 200.0 mg/kg/injection, schedule: Q04DX003 (ip), vehicle: DMSO 97 % of control | dose: 400.0 mg/kg/injection, schedule: Q04DX003 (ip), vehicle: DMSO 95 % of control

OCC1CCCCC1CO (stereo unspecified)
inactive: dose: 100.0 mg/kg/injection, schedule: Q04DX002 (ip), vehicle: Klucel (hydroxypropylcellulose) (HPC) 113 % of control | dose: 200.0 mg/kg/injection, schedule: Q04DX002 (ip), vehicle: Klucel (hydroxypropylcellulose) (HPC) 107 % of control | dose: 400.0 mg/kg/injection, schedule: Q04DX002 (ip), vehicle: Klucel (hydroxypropylcellulose) (HPC) 103 % of control

O=[N+]([O-])c1ccc(N=NN(CCF)CCF)cc1
inactive: dose: 6.25 mg/kg/injection, schedule: Q01DX Z (ip), vehicle: saline 93 % of control | dose: 10.0 mg/kg/injection, schedule: Q01DX Z (ip), vehicle: saline 97 % of control | dose: 30.0 mg/kg/injection, schedule: Q01DX Z (ip), vehicle: saline 108 % of control

O=c1c(=O)c2ccccc2c(=O)/c1=N/Nc1ccccc1
inactive: dose: 100.0 mg/kg/injection, schedule: Q01DX001 (ip), vehicle: water 98 % of control | dose: 200.0 mg/kg/injection, schedule: Q01DX001 (ip), vehicle: water 95 % of control | dose: 400.0 mg/kg/injection, schedule: Q01DX001 (ip), vehicle: water 97 % of control

CCCCCCC(CCCCCC)c1ccccc1
inactive: [1] 90 % of control | [2] 93 % of control

CNC(=O)OCCOc1ccccc1
inactive: [1] 109 % of control | dose: 100.0 mg/kg/injection, schedule: Q01DX009 (ip), vehicle: saline with Tween-80 105 % of control and 116 % of control | dose: 100.0 mg/kg/injection, schedule: Q04DX002 (ip), vehicle: saline with Tween-80 97 % of control and 89 % of control | [2] 108 % of control | dose: 200.0 mg/kg/injection, schedule: Q01DX009 (ip), vehicle: saline with Tween-80 96 % of control and 101 % of control | dose: 200.0 mg/kg/injection, schedule: Q04DX002 (ip), vehicle: saline with Tween-80 94 % of control and 90 % of control | [3] 111 % of control | dose: 400.0 mg/kg/injection, schedule: Q01DX009 (ip), vehicle: saline with Tween-80 108 % of control and 110 % of control | dose: 400.0 mg/kg/injection, schedule: Q04DX002 (ip), vehicle: saline with Tween-80 119 % of control and 87 % of control

CCOC(=O)C(C#N)c1ccccc1 (stereo unspecified)
inactive: dose: 50.0 mg/kg/injection, schedule: Q01DX001 (ip), vehicle: saline 96 % of control | [6] 100 % of control | [7] 100 % of control

CCCCCCCCCCCCc1cc2ccccc2c2ccccc12
inactive: [6] 98 % of control | [7] 95 % of control | dose: 400.0 mg/kg/injection, schedule: Q01DX001 (ip), vehicle: saline 89 % of control

C=CCNC(=S)Nc1cccc(OC(=O)Nc2ccc(Cl)c(Cl)c2)c1
inactive: [4] 87 % of control | [5] 92 % of control
